From patent publication US20230201238A1, “THERAPEUTIC AGENT FOR AN RNA VIRUS INFECTION COMPRISING A COMBINATION OF A PYRAZINE DERIVATIVE AND A THIOPURINE DERIVATIVE” (priority 2020, published 2023)
Where two headings read alike, the source gives them in different places.

Assays:
[1] = test system: Vero cells; settings: with T-705
[2] = test system: influenza virus (PR/8/34 (H1N1)); type: cell-based; settings: for IC50: Vero cells, 2 days, read-out: The 50% CPE inhibitory concentration of T-705

SMILES	Effect on intracellular T-705RTP amount after T-705 treatment [1]	CPE inhibitory effect ([2]; 6-methylmercaptopurine riboside 10 μM alone)	IC50 ([2]; T-705 alone (6-methylmercaptopurine 0 μM)) [µM]	50% CPE inhibitory concentration of T-705 in combination compared to T-705 alone ([2]; in combination with 6-methylmercaptopurine riboside)	IC50 ([2]; with 6-methylmercaptopurine 0.1 μM) [µM]	IC50 ([2]; with 6-methylmercaptopurine 0.3 μM) [µM]	IC50 ([2]; with 6-methylmercaptopurine 1 μM) [µM]	IC50 ([2]; with 6-methylmercaptopurine 3 μM) [µM]	IC50 ([2]; with 6-methylmercaptopurine 10 μM) [µM]
CSc1ncnc2c1ncn2[C@@H]1O[C@H](CO)[C@@H](O)[C@H]1O [6-methylmercaptopurine riboside]	increased	did not show a CPE inhibitory effect							
NC(=O)c1nc(F)cnc1O [T-705]			183	lower	89.4	48.9	30.6	21.9	20.2
